Assay results from patent US12617783B2, “Heterocyclic GLP-1R agonists” (BIOMEA FUSION, INC., priority 2024, dated 2026).
Where two headings read alike, the source gives them in different places.

Molecular target: T1, human GLP-1R (Homo sapiens, UniProt P43220)
T1 construct: host or cells: HEK293
Assay: GLP-1R cAMP assay (Example B1a, HTRF, 30 min at room temperature)
Assay type: cell-based
Procedure, shortened: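 Competitive HTRF read-out of cAMP after 30 min room-temperature stimulation, BETP absent, of human GLP-1R-HEK293 cells (1,000/well) in HEPES buffer with 500 μM IBMX and 0.1% BSA. Activation normalised to GLP-1(7-37) positive control. EC50 from 4-parameter non-linear regression.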

[1] = cAMP accumulation in HEK293 expressing human GLP-1R, no BETP, 30 min room temperature (Method B1a, compounds ID 1-609), Table 1, read-out: EC50

T1 sequence (P43220 24-463): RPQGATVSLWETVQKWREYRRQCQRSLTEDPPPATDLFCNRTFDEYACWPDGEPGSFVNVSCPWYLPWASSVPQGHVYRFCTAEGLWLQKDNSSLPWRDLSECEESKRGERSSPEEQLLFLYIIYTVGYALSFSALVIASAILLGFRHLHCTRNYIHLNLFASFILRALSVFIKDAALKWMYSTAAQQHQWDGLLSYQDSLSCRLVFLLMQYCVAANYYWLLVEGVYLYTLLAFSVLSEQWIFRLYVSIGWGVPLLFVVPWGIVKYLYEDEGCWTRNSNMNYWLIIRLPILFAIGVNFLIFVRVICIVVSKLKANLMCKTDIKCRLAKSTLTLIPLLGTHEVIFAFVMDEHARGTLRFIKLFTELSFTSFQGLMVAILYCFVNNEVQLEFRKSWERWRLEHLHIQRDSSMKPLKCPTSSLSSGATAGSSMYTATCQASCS

Cc1cc(-n2nc3c(c2-n2ccn(-c4ccc5c(cnn5C)c4F)c2=O)[C@@H]2CC[C@H]([C@@H]3F)N2C(=O)c2cc3cc([C@H]4CCOC(C)(C)C4)ccc3n2[C@@]2(c3noc(=O)[nH]3)C[C@@H]2C)cc(C)c1F [Compound 515, 3-[(1S,2S)-1-[5-[(4S)-2,2-dimethyltetrahydropyran-4-yl]-2-[(1S,7S,8R)-7-fluoro-4-(4-fluoro-3,5-dimethyl-phenyl)-3-[3-(4-fluoro-1-methyl-indazol-5-yl)-2-oxo-imidazol-1-yl]-4,5,11-triazatricyclo[6.2.1.02,6]undeca-2,5-diene-11-carbonyl]indol-1-yl]-2-methyl-cyclopropyl]-4H-1,2,4-oxadiazol-5-one]
EC50 Ratio (Table 1d, potency ratio of stereoisomer pair (less potent / more potent isomer)): >44 | EC50 (Table 1d, stereoisomer pairs, read-out: EC50): 120 nM | EC50 [1]: 120 nM | EC50 (text to Table 1d, bridge atoms configured into the plane or away from the reader, read-out: potency (EC50)): < 1000 nM

Cc1cc(-n2nc3c(c2-n2ccn(-c4ccc5c(cnn5C)c4F)c2=O)[C@@H]2CC[C@H](C3)N2C(=O)c2cc3cc([C@@H]4CCOC5(CC5)C4)ccc3n2[C@]2(c3noc(=O)[nH]3)C[C@H]2C)cc(C)c1F [Compound 516, 3-[(1R,2R)-1-[2-[(1S,8R)-4-(4-fluoro-3,5-dimethyl-phenyl)-3-[3-(4-fluoro-1-methyl-indazol-5-yl)-2-oxo-imidazol-1-yl]-4,5,11-triazatricyclo[6.2.1.02,6]undeca-2,5-diene-11-carbonyl]-5-[(7R)-4-oxaspiro[2.5]octan-7-yl]indol-1-yl]-2-methyl-cyclopropyl]-4H-1,2,4-oxadiazol-5-one]
EC50 [1]: ≥ 10000 nM

Cc1cc(-n2nc3c(c2-n2ccn(-c4ccc5c(cnn5C)c4F)c2=O)[C@H]2CC[C@@H](C3)N2C(=O)c2cc3cc([C@@H]4CCOC5(CC5)C4)ccc3n2[C@]2(c3noc(=O)[nH]3)C[C@H]2C)cc(C)c1F [Compound 517, 3-[(1R,2R)-1-[2-[(1R,8S)-4-(4-fluoro-3,5-dimethyl-phenyl)-3-[3-(4-fluoro-1-methyl-indazol-5-yl)-2-oxo-imidazol-1-yl]-4,5,11-triazatricyclo[6.2.1.02,6]undeca-2,5-diene-11-carbonyl]-5-[(7R)-4-oxaspiro[2.5]octan-7-yl]indol-1-yl]-2-methyl-cyclopropyl]-4H-1,2,4-oxadiazol-5-one]
EC50 [1]: ≥ 10000 nM

Cc1cc(-n2nc3c(c2-n2ccn(-c4ccc5c(cnn5C)c4F)c2=O)[C@H](C)N(C(=O)c2cc4cc([C@H]5CCOC(C)(C)C5)ccc4n2[C@@]2(c4noc(=O)[nH]4)C[C@@H]2C)CCC3)cc(C)c1F [Compound 518, 3-[(1S,2S)-1-[5-[(4S)-2,2-dimethyltetrahydropyran-4-yl]-2-[(4S)-2-(4-fluoro-3,5-dimethyl-phenyl)-3-[3-(4-fluoro-1-methyl-indazol-5-yl)-2-oxo-imidazol-1-yl]-4-methyl-4,6,7,8-tetrahydropyrazolo[4,3-c]azepine-5-carbonyl]indol-1-yl]-2-methyl-cyclopropyl]-4H-1,2,4-oxadiazol-5-one]
EC50 [1]: 73.5 nM

Cc1cc(-n2nc3c(c2-n2ccn(-c4ccc5c(cnn5C)c4F)c2=O)[C@@H]2CC[C@H](C3)N2C(=O)c2cc3cc([C@H]4CCOC5(CC5)C4)ccc3n2[C@]2(c3noc(=O)[nH]3)C[C@H]2C)cc(C)c1F [Compound 519, 3-[(1R,2R)-1-[2-[(1S,8R)-4-(4-fluoro-3,5-dimethyl-phenyl)-3-[3-(4-fluoro-1-methyl-indazol-5-yl)-2-oxo-imidazol-1-yl]-4,5,11-triazatricyclo[6.2.1.02,6]undeca-2,5-diene-11-carbonyl]-5-[(7S)-4-oxaspiro[2.5]octan-7-yl]indol-1-yl]-2-methyl-cyclopropyl]-4H-1,2,4-oxadiazol-5-one]
EC50 [1]: ≥ 10000 nM

Cc1cc(-n2nc3c(c2-n2ccn(-c4ccc5c(cnn5C)c4F)c2=O)[C@H]2CC[C@@H](C3)N2C(=O)c2cc3cc([C@H]4CCOC5(CC5)C4)ccc3n2[C@]2(c3noc(=O)[nH]3)C[C@H]2C)cc(C)c1F [Compound 520, 3-[(1R,2R)-1-[2-[(1R,8S)-4-(4-fluoro-3,5-dimethyl-phenyl)-3-[3-(4-fluoro-1-methyl-indazol-5-yl)-2-oxo-imidazol-1-yl]-4,5,11-triazatricyclo[6.2.1.02,6]undeca-2,5-diene-11-carbonyl]-5-[(7S)-4-oxaspiro[2.5]octan-7-yl]indol-1-yl]-2-methyl-cyclopropyl]-4H-1,2,4-oxadiazol-5-one]
EC50 [1]: ≥ 10000 nM

Cc1cc(-n2nc3c(c2-n2ccn(-c4ccc5cnncc5c4F)c2=O)CN(C(=O)c2cc4cc([C@H]5CCOC(C)(C)C5)ccc4n2[C@@]2(c4noc(=O)[nH]4)C[C@@H]2C)CCC3)cc(C)c1F [Compound 521, 3-[(1S,2S)-1-[5-[(4S)-2,2-dimethyltetrahydropyran-4-yl]-2-[2-(4-fluoro-3,5-dimethyl-phenyl)-3-[3-(5-fluorophthalazin-6-yl)-2-oxo-imidazol-1-yl]-4,6,7,8-tetrahydropyrazolo[4,3-c]azepine-5-carbonyl]indol-1-yl]-2-methyl-cyclopropyl]-4H-1,2,4-oxadiazol-5-one]
EC50 [1]: 197 nM

Cc1cc(-n2nc3c(c2-n2ccn(-c4ccc5c(cnn5C)c4F)c2=O)C2CCC(CC3)N2C(=O)c2cc3cc([C@H]4CCOC(C)(C)C4)ccc3n2[C@@]2(c3noc(=O)[nH]3)C[C@@H]2C)cc(C)c1F (stereo partly drawn) [Compound 522, 3-[(1S,2S)-1-[5-[(4S)-2,2-dimethyltetrahydropyran-4-yl]-2-[4-(4-fluoro-3,5-dimethyl-phenyl)-3-[3-(4-fluoro-1-methyl-indazol-5-yl)-2-oxo-imidazol-1-yl]-4,5,12-triazatricyclo[7.2.1.02,6]dodeca-2,5-diene-12-carbonyl]indol-1-yl]-2-methyl-cyclopropyl]-4H-1,2,4-oxadiazol-5-one]
EC50 [1]: ≥ 10000 nM

Cc1cc(-n2nc3c(c2-n2ccn(-c4ccc5c(cnn5C)c4F)c2=O)[C@@H]2CC[C@H](CC3)N2C(=O)c2cc3cc([C@H]4CCOC(C)(C)C4)ccc3n2[C@@]2(c3noc(=O)[nH]3)C[C@@H]2C)cc(C)c1F [Compound 523, 3-[(1S,2S)-1-[5-[(4S)-2,2-dimethyltetrahydropyran-4-yl]-2-[(1S,9R)-4-(4-fluoro-3,5-dimethyl-phenyl)-3-[3-(4-fluoro-1-methyl-indazol-5-yl)-2-oxo-imidazol-1-yl]-4,5,12-triazatricyclo[7.2.1.02,6]dodeca-2,5-diene-12-carbonyl]indol-1-yl]-2-methyl-cyclopropyl]-4H-1,2,4-oxadiazol-5-one]
EC50 [1]: 617 nM

Cc1cc(-n2nc3c(c2-n2ccn(-c4ccc5c(cnn5C)c4F)c2=O)[C@H]2CC[C@@H](CC3)N2C(=O)c2cc3cc([C@H]4CCOC(C)(C)C4)ccc3n2[C@@]2(c3noc(=O)[nH]3)C[C@@H]2C)cc(C)c1F [Compound 524, 3-[(1S,2S)-1-[5-[(4S)-2,2-dimethyltetrahydropyran-4-yl]-2-[(1R,9S)-4-(4-fluoro-3,5-dimethyl-phenyl)-3-[3-(4-fluoro-1-methyl-indazol-5-yl)-2-oxo-imidazol-1-yl]-4,5,12-triazatricyclo[7.2.1.02,6]dodeca-2,5-diene-12-carbonyl]indol-1-yl]-2-methyl-cyclopropyl]-4H-1,2,4-oxadiazol-5-one]
EC50 [1]: ≥ 10000 nM
